Test results from PubChem BioAssay AID2060492 (Molecular Pharmacology Branch, DTP, NCI, 2025).
pIC50: −log10 of the molar value.

Tested on: 695427-040-R-J1-PDC complex spheroids, viability percent T/C
Assay: Anticancer human tumor 695427-040-R-J1-PDC patient-derived colon adenocarcinoma cell line growth inhibition [GQUAD]
Details: for pIC50: curve of first compound; for viability, T/C: stronger effect = lower value
Method in brief: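 Multi-cell-type spheroids of tumor cells with HUVEC and mesenchymal stem cells, treated with drug combinations. Concentrations descend in half-log steps from near clinical Cmax, or from 10 microM where Cmax is unknown; viability read-out.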

[1] = second compound 0.0316 µM, first compound 0.0316 µM
[2] = second compound 0.0316 µM, first compound 0.1 µM
[3] = second compound 0.0316 µM, first compound 0.316 µM
[4] = second compound 0.0316 µM, first compound 1 µM
[5] = second compound 0.0316 µM, first compound 3.16 µM
[6] = second compound 0.0316 µM, first compound 10 µM
[7] = second compound 0.1 µM, first compound 0.0316 µM
[8] = second compound 0.1 µM, first compound 0.1 µM
[9] = second compound 0.1 µM, first compound 0.316 µM
[10] = second compound 0.1 µM, first compound 1 µM
[11] = second compound 0.1 µM, first compound 3.16 µM
[12] = second compound 0.1 µM, first compound 10 µM
[13] = second compound 0.316 µM, first compound 0.0316 µM
[14] = second compound 0.316 µM, first compound 0.1 µM
[15] = second compound 0.316 µM, first compound 0.316 µM
[16] = second compound 0.316 µM, first compound 1 µM
[17] = second compound 0.316 µM, first compound 3.16 µM
[18] = second compound 0.316 µM, first compound 10 µM
[19] = second compound 1 µM, first compound 0.0316 µM
[20] = second compound 1 µM, first compound 0.1 µM
[21] = second compound 1 µM, first compound 0.316 µM
[22] = second compound 1 µM, first compound 1 µM
[23] = second compound 1 µM, first compound 3.16 µM
[24] = second compound 1 µM, first compound 10 µM
[25] = second compound 3.16 µM, first compound 0.0316 µM
[26] = second compound 3.16 µM, first compound 0.1 µM
[27] = second compound 3.16 µM, first compound 0.316 µM
[28] = second compound 3.16 µM, first compound 1 µM
[29] = second compound 3.16 µM, first compound 3.16 µM
[30] = second compound 3.16 µM, first compound 10 µM
[31] = second compound 10 µM, first compound 0.0316 µM
[32] = second compound 10 µM, first compound 0.1 µM
[33] = second compound 10 µM, first compound 0.316 µM
[34] = second compound 10 µM, first compound 1 µM
[35] = second compound 10 µM, first compound 3.16 µM
[36] = second compound 10 µM, first compound 10 µM
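Also: spheroids exposed to compounds for seven days before readout.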

CC(C)(O)C1CCC(Nc2ccc3ncc(-c4cccc(C(F)(F)F)c4)n3n2)CC1 (stereo unspecified) + CN(C)c1ccc(Nc2c3ccc(NC(=O)CCN4CCCC4)cc3nc3cc(NC(=O)CCN4CCCC4)ccc23)cc1
pIC50 (second compound 0.0316 µM): 5.80 | pIC50 (second compound 0.1 µM): 5.78 | pIC50 (second compound 0.316 µM): 5.79 | pIC50 (second compound 1 µM): 5.80 | pIC50 (second compound 3.16 µM): 5.82 | pIC50 (second compound 10 µM): 5.83 | viability, T/C [1]: 102% | viability, T/C [2]: 91.7% | viability, T/C [3]: 87.4% | viability, T/C [4]: 73.4% | viability, T/C [5]: 15.2% | viability, T/C [6]: 14.3% | viability, T/C [7]: 106% | viability, T/C [8]: 97% | viability, T/C [9]: 108% | viability, T/C [10]: 78.8% | viability, T/C [11]: 14.7% | viability, T/C [12]: 12.1% | viability, T/C [13]: 105% | viability, T/C [14]: 96.9% | viability, T/C [15]: 94.9% | viability, T/C [16]: 74% | viability, T/C [17]: 15.2% | viability, T/C [18]: 16.6% | viability, T/C [19]: 95% | viability, T/C [20]: 100% | viability, T/C [21]: 90.9% | viability, T/C [22]: 74.9% | viability, T/C [23]: 13% | viability, T/C [24]: 13.6% | viability, T/C [25]: 91.9% | viability, T/C [26]: 92.2% | viability, T/C [27]: 89.5% | viability, T/C [28]: 71.3% | viability, T/C [29]: 13.2% | viability, T/C [30]: 11.4% | viability, T/C [31]: 84.7% | viability, T/C [32]: 81.3% | viability, T/C [33]: 75.9% | viability, T/C [34]: 69.4% | viability, T/C [35]: 11.8% | viability, T/C [36]: 10%

Cc1cccc(N(C)C(=O)C2C(O)CCN2c2nc(C)cc(C(F)(F)F)c2C#N)c1 (stereo unspecified) + Cc1cnc(CNC(=O)c2c(=O)c3ccc(N4CCCN(C)CC4)nc3n3c2sc2ccccc23)cn1
pIC50 (second compound 0.0316 µM): < 5.00 | pIC50 (second compound 0.1 µM): < 5.00 | pIC50 (second compound 0.316 µM): < 5.00 | pIC50 (second compound 1 µM): < 5.00 | pIC50 (second compound 3.16 µM): > 7.50 | pIC50 (second compound 10 µM): > 7.50 | viability, T/C [1]: 110% | viability, T/C [2]: 92.5% | viability, T/C [3]: 76.6% | viability, T/C [4]: 78.7% | viability, T/C [5]: 87.5% | viability, T/C [6]: 62.9% | viability, T/C [7]: 87% | viability, T/C [8]: 80% | viability, T/C [9]: 102% | viability, T/C [10]: 71% | viability, T/C [11]: 87.9% | viability, T/C [12]: 79.1% | viability, T/C [13]: 72.5% | viability, T/C [14]: 78.4% | viability, T/C [15]: 51.4% | viability, T/C [16]: 74.7% | viability, T/C [17]: 77.5% | viability, T/C [18]: 69.9% | viability, T/C [19]: 62.1% | viability, T/C [20]: 57.7% | viability, T/C [21]: 57.8% | viability, T/C [22]: 56.9% | viability, T/C [23]: 83% | viability, T/C [24]: 60.7% | viability, T/C [25]: 38.8% | viability, T/C [26]: 47% | viability, T/C [27]: 54.8% | viability, T/C [28]: 51.2% | viability, T/C [29]: 67.8% | viability, T/C [30]: 50.9% | viability, T/C [31]: 32.1% | viability, T/C [32]: 40% | viability, T/C [33]: 46.6% | viability, T/C [34]: 47.1% | viability, T/C [35]: 59.5% | viability, T/C [36]: 42.5%

CC1COCCN1c1cc(C2(O)CC3CCC(C2)O3)c2cnn(-c3ccn[nH]3)c2n1 (stereo unspecified) + CN(C)c1ccc(Nc2c3ccc(NC(=O)CCN4CCCC4)cc3nc3cc(NC(=O)CCN4CCCC4)ccc23)cc1
pIC50 (second compound 0.0316 µM): 5.64 | pIC50 (second compound 0.1 µM): 5.69 | pIC50 (second compound 0.316 µM): 5.70 | pIC50 (second compound 1 µM): 5.64 | pIC50 (second compound 3.16 µM): 5.81 | pIC50 (second compound 10 µM): 6.06 | viability, T/C [1]: 105% | viability, T/C [2]: 79.7% | viability, T/C [3]: 73.6% | viability, T/C [4]: 55.5% | viability, T/C [5]: 48% | viability, T/C [6]: 39.6% | viability, T/C [7]: 100% | viability, T/C [8]: 81.9% | viability, T/C [9]: 69.4% | viability, T/C [10]: 57.2% | viability, T/C [11]: 45.4% | viability, T/C [12]: 38.1% | viability, T/C [13]: 89.3% | viability, T/C [14]: 87.1% | viability, T/C [15]: 70.3% | viability, T/C [16]: 57.4% | viability, T/C [17]: 46.4% | viability, T/C [18]: 39% | viability, T/C [19]: 91.3% | viability, T/C [20]: 80.7% | viability, T/C [21]: 67.1% | viability, T/C [22]: 53.9% | viability, T/C [23]: 50.9% | viability, T/C [24]: 38.6% | viability, T/C [25]: 81.9% | viability, T/C [26]: 78.1% | viability, T/C [27]: 69.9% | viability, T/C [28]: 51.8% | viability, T/C [29]: 46.1% | viability, T/C [30]: 37.5% | viability, T/C [31]: 83.9% | viability, T/C [32]: 78.2% | viability, T/C [33]: 66.9% | viability, T/C [34]: 46.4% | viability, T/C [35]: 41.2% | viability, T/C [36]: 35.5%
